Data from patent publication US10870647B2, “Imidazopyridine derivative, method for preparing same, and pharmaceutical composition containing same as active ingredient for preventing or treating cancer” (DAEGU-GYEONGBUK MEDICAL INNOVATION FOUNDATION, priority 2016, dated 2020).
Like-named read-outs stand apart in the source and are kept apart here.

Key:
Format in all cases: cell-based
RET (LC2/ad-CDC6) = experiment: Cancer cell proliferation inhibition, MTS assay, 72 hours
Method in brief: (§1)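 Cells seeded at 3,000/well were cultured 24 h, then exposed 72 h to serially diluted compound from 50 μM top (0.05% DMSO). Viability was read by MTS/PMS at OD450 after 2 h at 37°C. IC50 was taken as 50% proliferation inhibition versus solvent control, from three data sets.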

Huh7 = experiment: as above; details: Homo sapiens, Huh-7
Method in brief: as §1

SK-MEL-28 = experiment: as above; details: Homo sapiens
Method in brief: as §1

FYN (MCP-1) = experiment: as above
Method in brief: as §1

MDA-MB-231 = experiment: Real time cell proliferation, IncuCyte ZOOM, 72 hours; details: Homo sapiens, MDA-MB-231, 72 h
A375 = experiment: Cancer cell proliferation inhibition, CCK-8, 72 hours
Method in brief: (§2)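 A375 cells (2×10^3/well) attached overnight, then received 9 three-fold dilutions (0.0015-10 μM). K562 and Ba/F3-T315I (1×10^4/well) were given 9-point series (3-fold and 5-fold respectively), final 0-10 μM. After 72 h at 37°C, CCK-8 was added for 2 h; blank-subtracted OD450 gave IC50.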

K562 = experiment: as above
Method in brief: as §2

T315I (Ba/F3) = target: T1, T315I (Ba/F3) (Homo sapiens, UniProt P00519, T315I, cells depend on it); experiment: as above; details: read-out: T315I (Ba/F3) IC50
T1 construct: fused on or other part: P11274 (Breakpoint cluster region protein)
Method in brief: as §2

M-NFS-60 = experiment: as above
Experimental: MTS assay was performed to evaluate the cancer cell proliferation inhibition (cancer cell apoptosis) effect of the compounds of examples of the present invention. Particularly, the assay was performed using the cancer cell lines GIST-T1, GIST-T1/816, GIST-430, GIST-430/654, GIST-R1, GIST-R3, M-NFS-60, RetParental (Ba/F3), Retwt (Ba/F3), RetV804M (Ba/F3), RET (LC2/ad-CDC6), FYN (MCP-1), FYN (FN), MDA-MB-231, Huh7, K562, T315I(Ba/F3), SK-MEL-28 and A375. Cell culture was performed using a medium suitable for each cell line.
M-NFS-60 cell line was cultured in the complete growth medium prepared by adding 10% FBS, 0.05 mM 2-mercaptoethanol and 62 ng of human M-CSF to RPMI. When the confluence reached 80% in T-75 flask, the cells were collected in a 50 ml tube for seeding, followed by centrifugation at 800 rpm for 5 minutes. The cells were suspended in 10 mL of growth medium. The cell number was counted by using a hematocytometer to determine the necessary cell number and the medium volume for seeding. The cells were seeded in a 96-well plate at the density of 20000 cells/well (200 μL/well), followed by stabilization in a 37° C. CO2 incubator, while the compounds of the present invention were prepared. The compounds of the present invention were serially diluted with DMSO at the ratio of 1/3 with setting the maximum concentration at 1968 nM, which were loaded in a new V-bottom 96-well plate, resulting in the preparation of total 11 concentrations including the DMSO control. The cells that had been placed in the incubator were taken out, to which the compounds of the present invention were added (2 μl/well). The plate treated with the compounds was cultured in a 37° C. CO2 incubator for 72 hours. 72 hours later, the plate treated with the compounds was taken out, to which CCK-8 solution was treated (20 μl/well). After well mixing, the plate was further cultured in a 37° C. CO2 incubator for 2 hours. Then, OD450 was measured by using a microplate reader. To obtain accurate results, the wells displaying bubbles were eliminated from the measurement.

| Compound | IC50 (RET (LC2/ad-CDC6); 72 h) | IC50 (Huh7) | IC50 (SK-MEL-28) | IC50 (FYN (MCP-1)) | IC50 (MDA-MB-231) | IC50 (A375; Homo sapiens, A-375, 72 h) | IC50 (K562; Homo sapiens, K562, 72 h) | GI50 (T315I (Ba/F3)) | IC50 (M-NFS-60) | IC50 (RET (LC2/ad-CDC6)) | IC50 (A375) | IC50 (K562) |
| --- | --- | --- | --- | --- | --- | --- | --- | --- | --- | --- | --- | --- |
| Cc1ccc(Nc2cccn3c(C#Cc4cc(C(=O)Nc5ccc(CN6CCN(C)CC6)c(C(F)(F)F)c5)ccc4C)cnc23)nc1 [Example 20, 4-methyl-N-(4-((4-methylpiperazin-1-yl)methyl)-3-(trifluoromethyl)phenyl)-3-((8-((5-methylpyridin-2-yl)amino)imidazo[1,2-a]pyridin-3-yl)ethynyl)benzamide] | < 100 nM | 1750 nM | 1450 nM | 1330 nM | 1560 nM | 3360 nM | 14 nM | 234 nM | 1060 nM |  |  |  |
| CCn1cc(Nc2cccn3c(C#Cc4cc(C(=O)Nc5ccc(CN6CCN(C)CC6)c(C(F)(F)F)c5)ccc4C)cnc23)cn1 [Example 22, 3-((8-((1-ethyl-1H-pyrazol-4-yl)amino)imidazo[1,2-a]pyridin-3-yl)ethynyl)-4-methyl-N-(4-((4-methylpiperazin-1-yl)methyl)-3-(trifluoromethyl)phenyl)benzamide] | < 10 nM | 91 nM | 803 nM | 320 nM | 318 nM | 140 nM | < 1 nM | 37.5 nM | 56.2 nM |  |  |  |
| CCN1CCN(Cc2ccc(NC(=O)c3ccc(C)c(C#Cc4cnc5c(Nc6cnn(CC)c6)cccn45)c3)cc2C(F)(F)F)CC1 [Example 23, 3-((8-((1-ethyl-1H-pyrazol-4-yl)amino)imidazo[1,2-a]pyridin-3-yl)ethynyl)-N-(4-((4-ethylpiperazin-1-yl)methyl)-3-(trifluoromethyl)phenyl)-4-methylbenzamide] | < 10 nM | 73.8 nM | 917 nM | 270 nM | 342 nM | 142 nM | < 1 nM | 39 nM |  |  |  |  |
| Cc1ccc(C(=O)Nc2ccc(CN3CCN(C)[C@H](C)C3)c(C(F)(F)F)c2)cc1C#Cc1cnc2c(Nc3cnn(C(C)C)c3)cccn12 [Example 29, (R)—N-(4-((3,4-dimethylpiperazin-1-yl)methyl)-3-(trifluoromethyl)phenyl)-3-((8-((1-isopropyl-1H-pyrazol-4-yl)amino)imidazo[1,2-a]pyridin-3-yl)ethynyl)-4-methylbenzamide] |  | 30 nM | 717 nM | 3130 nM | 963 nM |  |  | 102 nM |  | < 100 nM | 292 nM | 5 nM |
| Cc1ccc(C(=O)Nc2ccc(CN3CCN(C)[C@H](C)C3)c(C(F)(F)F)c2)cc1C#Cc1cnc2c(Nc3cnn(C)c3)cccn12 [Example 31, (R)—N-(4-((3,4-dimethylpiperazin-1-yl)methyl)-3-(trifluoromethyl)phenyl)-4-methyl-3-((8-((1-methyl-1H-pyrazol-4-yl)amino)imidazo[1,2-a]pyridin-3-yl)ethynyl)benzamide] |  | 64 nM | 482 nM | 770 nM | 212 nM | 152 nM | < 1 nM | 54.2 nM | 63.6 nM |  |  |  |

The remaining lines, values ahead:

| IC50 (RET (LC2/ad-CDC6); 72 h) | IC50 (Huh7) | IC50 (SK-MEL-28) | IC50 (FYN (MCP-1)) | IC50 (MDA-MB-231) | IC50 (A375; Homo sapiens, A-375, 72 h) | IC50 (K562; Homo sapiens, K562, 72 h) | GI50 (T315I (Ba/F3)) | IC50 (M-NFS-60) | IC50 (RET (LC2/ad-CDC6)) | IC50 (A375) | IC50 (K562) | Compound |
| --- | --- | --- | --- | --- | --- | --- | --- | --- | --- | --- | --- | --- |
|  | 107 nM | 1150 nM | 890 nM | 456 nM | 406 nM | < 1 nM | 60.4 nM | 64.2 nM |  |  |  | Cc1ccc(C(=O)Nc2ccc(CN3CCC(N(C)C)C3)c(C(F)(F)F)c2)cc1C#Cc1cnc2c(Nc3cnn(C)c3)cccn12 (stereo not drawn) [Example 32, N-(4-((3-(dimethylamino)pyrrolidin-1-yl)methyl)-3-(trifluoromethyl)phenyl)-4-methyl-3-((8-((1-methyl-1H-pyrazol-4-yl)amino)imidazo[1,2-a]pyridin-3-yl)ethynyl)benzamide] |
|  | 82 nM |  | 2040 nM | 444 nM | 452 nM | < 1 nM | 156 nM | 32.1 nM |  |  |  | CCN1CCN(Cc2ccc(NC(=O)c3ccc(C)c(C#Cc4cnc5c(Nc6cnn(CCCN(C)C)c6)cccn45)c3)cc2C(F)(F)F)CC1 [Example 33, 3-((8-((1-(3-(dimethylamino)propyl)-1H-pyrazol-4-yl)amino)imidazo[1,2-a]pyridin-3-yl)ethynyl)-N-(4-((4-ethylpiperazin-1-yl)methyl)-3-(trifluoromethyl)phenyl)-4-methylbenzamide] |
|  | 66 nM |  | 1120 nM | 1110 nM | 1280 nM | < 1 nM | 247 nM |  |  |  |  | Cc1ccc(C(=O)Nc2ccc(CN3CCC(N(C)C)C3)c(C(F)(F)F)c2)cc1C#Cc1cnc2c(Nc3cnn(CCCN(C)C)c3)cccn12 (stereo not drawn) [Example 35, 3-((8-((1-(3-(dimethylamino)propyl)-1H-pyrazol-4-yl)amino)imidazo[1,2-a]pyridin-3-yl)ethynyl)-N-(4-((3-(dimethylamino)pyrrolidin-1-yl)methyl)-3-(trifluoromethyl)phenyl)-4-methylbenzamide] |
| > 10 nM |  |  | 9520 nM | > 10000 nM | > 10000 nM | 16 nM | 195 nM |  |  |  |  | Cc1ccc(C(=O)Nc2ccc(CN3CCC(F)(F)CC3)c(C(F)(F)F)c2)cc1C#Cc1cnc2c(Nc3cnn(C)c3)cccn12 [Example 52, N-(4-((4,4-difluoropiperidin-1-yl)methyl)-3-(trifluoromethyl)phenyl)-4-methyl-3-((8-((1-methyl-1H-pyrazol-4-yl)amino)imidazo[1,2-a]pyridin-3-yl)ethynyl)benzamide] |
| > 10 nM |  |  | 1470 nM | 289 nM | 229 nM | < 1 nM | 34.8 nM | 21.3 nM |  |  |  | CN1CCN(Cc2ccc(NC(=O)c3cccc(C#Cc4cnc5c(Nc6cnn(C)c6)cccn45)c3)cc2C(F)(F)F)CC1 [Example 60, 3-((8-((1-methyl-1H-pyrazol-4-yl)amino)imidazo[1,2-a]pyridin-3-yl)ethynyl)-N-(4-((4-methylpiperazin-1-yl)methyl)-3-(trifluoromethyl)phenyl)benzamide] |
| > 10 nM |  |  | 1170 nM | 268 nM | 172 nM | < 1 nM | 58.6 nM | 45.3 nM |  |  |  | CN1CCN(Cc2ccc(NC(=O)c3ccc(F)c(C#Cc4cnc5c(Nc6cnn(C)c6)cccn45)c3)cc2C(F)(F)F)CC1 [Example 61, 4-fluoro-3-((8-((1-methyl-1H-pyrazol-4-yl)amino)imidazo[1,2-a]pyridin-3-yl)ethynyl)-N-(4-((4-methylpiperazin-1-yl)methyl)-3-(trifluoromethyl)phenyl)benzamide] |
|  | 89 nM |  | 1870 nM | 320 nM | 132 nM | < 1 nM | 82.4 nM | 46 nM |  |  |  | Cc1ccc(NC(=O)c2ccc(CN3CCN(C)CC3)c(C(F)(F)F)c2)cc1C#Cc1cnc2c(Nc3cnn(C)c3)cccn12 [Example 80, N-(4-methyl-3-((8-((1-methyl-1H-pyrazol-4-yl)amino)imidazo[1,2-a]pyridin-3-yl)ethynyl)phenyl)-4-((4-methylpiperazin-1-yl)methyl)-3-(trifluoromethyl)benzamide] |
